Data: patent US9096554B2, “Drugs for inhibiting p38 and uses thereof” (UNIVERSIDAD AUTÓNOMA DE MADRID, priority 2011, dated 2015)
“Also recorded” adds a separate entry of the source.

Tests used:
p38 MAPK [1] = experiment: Activation of p38 MAPK in response to LPS and its activity (P-MK2, P-Hsp27) in THP-1 cells, Western Blot; assay type: cell-based, human; settings: THP-1, LPS, 1 and 5 μM, FIG. 2B
Description: This assay was performed to analyze the effect of Compound 1 on the activation of p38 MAPK and on its activity in a human monocytic cell line (THP-1) (American Type Culture Collection: http://www.atcc.org/) treated with different concentrations of said compound.
Briefly, human monocytic cells from said THP-1 cell line at a density of about 10^6 cells/ml were stimulated with bacterial LPS (Sigma #L2654) at a concentration of between 1 and 10 mg/ml (which may vary depending on the batch) for 1 hour in the absence or presence of Compound 1 at different concentrations (1 μM and 5 μM) dissolved in dimethyl sulfoxide (DMSO). DMSO was used as a control. The cells were lysed in a 100 mM pH 7.5 Tris/HCl buffer, 200 mM EDTA, 1 μM benzamidine, 10 mg/ml STI (soy trypsin inhibitor), 10 mg/ml bacitracin, 80 mU/ml aprotinin, 100 μM phenylmethanesulfonyl fluoride (PMSF) and phosSTOP (Roche, Ref.#04906845001). The samples were subsequently analyzed using Western Blot with specific antibodies. Briefly, the activation of p38 MAPK was analyzed by quantifying by densitometry the amount of p38 MAPK phosphorylated in the activation loop (TGY) by means of Western Blot with anti-phospho-T180-Y182-p38 antibodies (Cell Signaling, Ref.#9211) and by normalizing the values with those obtained for total p38 MAPK levels in each lysate. […]

[2] = Paw thickness as measurement of ongoing inflammation; assay type: in vivo, mice; settings: six days after treatment, FIG. 11E
p38 MAPK [3] = biological target: p38 MAPK (Homo sapiens, UniProt Q16539); experiment: Inhibition of MEF2A phosphorylation by p38 MAPK in vitro; assay type: biochemical; settings: MEF2A (10 nM) phosphorylation by active recombinant p38 (1 nM), 5 minutes
Chain of p38 MAPK (Homo sapiens, UniProt Q16539) (Q16539 whole entry): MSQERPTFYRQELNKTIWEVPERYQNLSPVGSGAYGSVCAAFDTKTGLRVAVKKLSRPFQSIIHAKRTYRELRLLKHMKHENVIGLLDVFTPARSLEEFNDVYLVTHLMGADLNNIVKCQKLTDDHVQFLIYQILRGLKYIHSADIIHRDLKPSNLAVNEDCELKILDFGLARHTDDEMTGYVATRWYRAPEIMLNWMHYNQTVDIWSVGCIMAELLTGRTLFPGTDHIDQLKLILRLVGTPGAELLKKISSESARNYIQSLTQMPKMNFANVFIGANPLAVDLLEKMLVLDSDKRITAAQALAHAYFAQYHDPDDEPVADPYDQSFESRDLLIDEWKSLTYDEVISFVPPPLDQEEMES
Description: This assay was performed to quantify the effect of the compounds of the invention on MEF2-A phosphorylation by p38 MAPK in vitro.
To that end, briefly, active recombinant p38 (1 nM) and MEF2A (10 nM) were incubated with different concentrations of Compound 1 in a kinase buffer for 5 minutes. The proteins were resolved using SDS-PAGE and the activity of p38 was measured as phosphorylated MEF2A using anti-P-MEF2A (T312), a specific antibody. The mean of the results is graphically depicted as a percentage with respect to the controls (DMSO) of two independent experiments conducted in duplicate. For comparative purposes, Compound 5 at a concentration of 10 μM was used.
Finally, the in vitro mean inhibitory concentration (IC50) of this reaction for each assayed compound was determined as the measurement of the efficacy of a compound for inhibiting this biochemical function using a sufficient range of concentrations of each of these compounds (data not shown).

TNF-α = TNF-α levels in the spinal cord after intrathecal treatment (ELISA); assay type: in vivo, mice; settings: FIG. 11D
Description: To find out if TNF-α levels are repressed in vivo after treatment with Compound 1, the spinal cord was isolated two days after intrathecal treatment with said compound and TNF-α levels were analyzed with ELISA.

[4] = test system: peritoneal macrophages of WT and GRK2^+/− mice; experiment: LPS-induced TNF-α secretion in peritoneal macrophages of WT and GRK2+/− mice; assay type: cell-based; settings: all doses, FIG. 13
Description: GRK2^+/− peritoneal macrophages were subjected to treatment with LPS and TNF secretion was measured in the presence of increasing doses of Compound 1 as described above. The inhibition observed in GRK2^+/− macrophages was greater than that obtained for WT cells for all doses of Compound 1. The data are means of points in duplicate referring in each case to the secretion obtained in WT macrophages in the presence of Compound 1 at the same dose.
TNF-α secretion inhibition in peritoneal macrophages of GRK2^+/− mice with Compound 1 was studied. As can be observed in FIG. 13, the greater effect of Compound 1 on GRK2^+/− macrophages may indicate that cells with a lower GRK2 level, as occurs in immune system cells from patients with inflammatory pathologies (Vroon A, Kavelaars A, Limmroth V, Lombardi M S, Goebel M U, Van Dam A M, Caron M G, Schedlowski M, Heijnen C J., J Immunol., 2005, 174(7), 4400-6) are more sensitive to such inhibition.

[5] = test system: wild-type mice of strain C54BL/6; experiment: Hyperalgesia induced by high doses of carrageenan in wild-type mice, intrathecal injection; assay type: in vivo; settings: for analgesic effect: FIG. 11A
Description: The administration of high doses of carrageenan is known to induce hyperalgesia and prolonged inflammation in wild-type mice. Briefly, 16 female wild-type mice of strain C54BL/6 (4 mice per group, 8 paws for each condition) were subjected to intraplantar injection of carrageenan (Sigma-Aldrich, 20 μL of a 2% solution % in saline) for inducing inflammatory-type hyperalgesia in the extremities. Six (6) days after injecting carrageenan, the paw withdrawal latency time when the paw is in contact with heat was determined as an indication of inflammatory-type pain at time 0 (T=0). The known p38 MAPK inhibitor SB239063 [trans-4-[4-(4-fluorophenyl)-5-(2-methoxy-4-pyrimidinyl)-1H-imidazol-1-yl]cyclohexanol] (5 μg in 5 μL of 20% DMSO), the carrier (20% DMSO), or Compound 1 at different concentrations (0.5, 1.0 and 1.5 μg in 5 μL of 20% DMSO) was then intrathecally injected.

[6] = test system: TNF-α secretion in response to bacterial LPS in human monocytes (THP-1); experiment: TNF-α secretion in response to LPS in THP-1 monocytes (ELISA); assay type: cell-based; settings: for IC50: Homo sapiens, THP-1, LPS; for activity in TNF-α secretion inhibition compared with comparative Compounds 10-14: FIG. 8
Description: (§1) This assay was performed to analyze the effect of the compounds of the invention on tumor necrosis factor alpha (TNF-α) secretion in response to bacterial lipopolysaccharide (LPS) in human monocytes (THP-1) and on the survival of said THP-1 monocytes in the presence of said compounds.
(§2) Briefly, cells from human monocytic cell line THP-1 (ATCC) at a density of about 10^6 cells/ml were stimulated with bacterial LPS (Sigma, Ref.# L2654) at a concentration of 1 mg/ml for 4 hours in the presence of the compounds of the invention dissolved in dimethyl sulfoxide (DMSO) at different concentrations (0.001, 0.01, 0.1, 1, 10 and 100 μM). The amount of TNF-α secreted into the medium in response to LPS was quantified by means of an ELISA assay (BioTrak, Ref.# RPN2758, GE-Amersham) following the manufacturer's instructions. Cell viability was quantified by means of flow cytometry FACS (FACScalibur, Becton Dickinson) after staining the treated cells with propidium iodide (1 mg/l) and quantifying the amount of positive cells for this stain (Software Cell Quest Pro).
These assays were performed to compare the effect of the compounds of the invention (compounds 1, 2 and 3) on tumor necrosis factor alpha (TNF-α) secretion in response to bacterial lipopolysaccharide (LPS) in human monocytes (THP-1) with respect to compounds that are structurally related but have a different substitution pattern in the phenyl ring. Conditions similar to those described in Example 7 were used.

[7] = test system: spinal cord astrocytes and neurons; experiment: Toxicity at the intrathecal injection site, Fluoro-Jade B staining, LysM-GRK2f/+ mice; assay type: in vivo; settings: two days after the injection, FIG. 10
Description: Furthermore, the possible toxicity of Compound 1 at the injection site (intrathecal) was measured.

THP-1 monocytes = experiment: THP-1 monocyte survival (propidium iodide, FACS); assay type: cell-based, human; settings: dose causing the death of 50% of the cells; THP-1, propidium iodide FACS
Description: as §1, §2

LysM-GRK2^f/+ mice = experiment: Carrageenan-induced hyperalgesia in LysM-GRK2f/+ mice, intrathecal injection; assay type: in vivo; settings: for hyperalgesia (paw withdrawal latency to heat): 7 days after carrageenan
Description: To perform this assay, a previously described protocol was followed [Willemen H L, et al., Microglial/macrophage GRK2 determines duration of peripheral IL-1beta-induced hyperalgesia: contribution of spinal cord CX3CR1, p38 and IL-1 signaling. Pain. 2010 September; 150(3):550-60; and Eijkelkamp N, et al., (http://www.ncbi.nlm.nih.gov/pubmed/20147541; J. Neurosci. 2010 Feb. 10; 30(6):2138-49). Briefly, eight female LysM-GRK2^f/+ mice (2 mice per group, 4 paws for each condition) were subjected to an intraplantar injection of carrageenan (Sigma-Aldrich, […] of a 1% solution in saline) for inducing inflammatory-type hyperalgesia in the extremities. Seven (7) days after injecting carrageenan, the paw withdrawal latency time when the paw is in contact with heat was determined as an indication of inflammatory-type pain at time 0 (T=0). The carrier (20% DMSO) or Compound 1 at different concentrations (0.15, 0.5 and 1.5 μg in 5 μL of 20% DMSO) was then intrathecally injected.
The paw withdrawal latency periods were then measured at different times (0.5, 1, 2, 4, 6, 8, 10, 24, 48 and 96 hours after injecting the compound).
To evaluate the effect of Compound 5 on hyperalgesia induced in mice, a protocol similar to that described for Compound 1 in Example 9A was followed, but in this protocol, the known p38 MAPK inhibitor SB239063 (5 μg in 5 μL of 20% DMSO), the carrier (20% DMSO), or Compound 5 (4 μg in 5 μL of 20% DMSO) was intrathecally injected 7 days after injecting the carrageenan.

[8] = doses of 1 and 1.5 μg intrathecal
[9] = Table 3, comparison with positional isomers

## Cc1ccc(Cl)cc1Nc1ccc([N+](=O)[O-])c2nonc12 [Compound 1, (5-chloro-2-methyl-phenyl)-(7-nitro-benzo[1,2,5]oxadiazol-4-yl)-amine]
p38 MAPK [1]
  activation of p38 MAPK (P-p38): decrease in the activation of p38 MAPK
  phosphorylation of MK2 and Hsp27 substrates: decrease in the phosphorylation
[2]
  mouse paw thickness: increased
p38 MAPK [3]
  IC50: 6.5 µM
TNF-α; after intraplantar carrageenan, two days after intrathecal treatment
  TNF-α levels in the spinal cord: significantly reduces
TNF-α; without carrageenan
  TNF-α secretion, compound alone: has no effect
[4]
  inhibition of TNF secretion in GRK2+/− macrophages compared with WT cells: greater
[5]; dose of 0.5 μg intrathecal, 6 days after carrageenan
  analgesic effect: temporary effect
[5]; [8]
  duration of analgesic effect: at least 5 days
  analgesic effect: long-term analgesic effect
[6]; Table 2, TNF-α ELISA
  IC50: 1.8 ± 0.006 µM
[6]; human monocytes
  activity in TNF-α secretion inhibition compared with comparative Compounds 10-14: greater activity
[7]
  neurotoxicity at the injection site (Fluoro-Jade B, dead or damaged cells): no signs of neurotoxicity were detected; also recorded: hardly any dead cells
THP-1 monocytes
  TD50 (μM): ≈200 μM (n = 2)
LysM-GRK2^f/+ mice; dose of 0.3 μg intrathecal, FIG. 9B
  long-term analgesic effect: did not provide any long-term analgesic effect
LysM-GRK2^f/+ mice; doses of 0.5 and 1.5 μg intrathecal
  time the reduction of hyperalgesia was maintained after administering: ≥ 96 h
LysM-GRK2^f/+ mice; doses of 0.5 and 1.5 μg intrathecal, FIG. 9A
  hyperalgesia (paw withdrawal latency to heat): almost complete reduction of hyperalgesia
LysM-GRK2^f/+ mice; intrathecal, FIG. 9B
  lowest effective dose: 0.5 µg

## O=[N+]([O-])c1ccc(Nc2cc(Cl)ccc2O)c2nonc12 [Compound 2, 4-chloro-2-(7-nitro-benzo[1,2,5]oxadiazol-4-ylamino)-phenol]
[6]; Table 2, TNF-α ELISA
  IC50: 3.2 ± 0.25 µM
[6]; human monocytes
  activity in TNF-α secretion inhibition compared with comparative Compounds 10-14: greater activity
THP-1 monocytes
  TD50 (μM): >100 μM (n = 2)

## O=[N+]([O-])c1ccc(Nc2cc(F)ccc2F)c2nonc12 [Compound 3, (2,5-difluoro-phenyl)-(7-nitro-benzo[1,2,5]oxadiazol-4-yl)-amine]
[6]; Table 2, TNF-α ELISA
  IC50: 2.9 ± 0.41 µM

## COc1ccc(Cl)cc1C(=O)Nc1ccc(Cl)c2nonc12 [Compound 4, 5-chloro-N-(7-chloro-benzo[1,2,5]oxadiazol-4-yl)-2-methoxy-benzamide]
[6]; Table 2, TNF-α ELISA
  IC50: 3.2 µM

## Cc1ccc(Cl)cc1Nc1cc(Cl)c2nonc2c1[N+](=O)[O-] [Compound 5, (5-chloro-2-methyl-phenyl)-(7-chloro-4-nitro-benzo[1,2,5]oxadiazol-5-yl)-amine]
p38 MAPK [3]
  IC50: 10 µM
[6]; Table 2, TNF-α ELISA
  IC50: 0.3 µM
THP-1 monocytes
  TD50 (μM): >35 μM (n = 3)
LysM-GRK2^f/+ mice; 4 μg intrathecal
  time after administering at which the decrease in hyperalgesia can be detected: 8 days
LysM-GRK2^f/+ mice; 4 μg intrathecal, FIG. 12
  hyperalgesia (paw withdrawal latency to heat): decrease in hyperalgesia

## Cc1ccc(C)c(Nc2cc(Cl)c3nonc3c2[N+](=O)[O-])c1 [Compound 6, (7-chloro-4-nitro-benzo[1,2,5]oxadiazol-5-yl)-(2,5-dimethyl-phenyl)-amine]
[6]; Table 2, TNF-α ELISA
  IC50: 3 µM

## Cc1ccc(Nc2ccc([N+](=O)[O-])c3nonc23)cc1Cl [Compound 7, reference compound]
[6]; [9]
  IC50: 17 ± 1.41 µM

## Cc1ccc(Nc2ccc([N+](=O)[O-])c3nonc23)c(Cl)c1 [Compound 8, reference compound]
[6]; [9]
  IC50: 29 ± 1.41 µM

## O=[N+]([O-])c1ccc(Nc2cccc(F)c2F)c2nonc12 [Compound 9, reference compound]
[6]; Table 4, comparison with positional isomer
  IC50: 5.25 ± 0.35 µM
[6]; human monocytes, FIG. 7
  capacity for reducing TNF-α secretion compared with Compound 3: lower capacity
